Assay results taken from patent US20240252488A1 (KOREA RESEARCH INSTITUTE OF CHEMICAL TECHNOLOGY, priority 2020, published 2024).

Assays:
FADD−/− Jurkat cells = experiment: Necroptosis inhibition assay, TNF-α-induced necroptosis (CellTiter-Glo 2.0); assay type: cell-based, human; settings: TNF-α 15 ng/mL; for Necroptosis inhibition assay (Rescue %) 1 μM: compound 1 μM; for Necroptosis inhibition assay (Rescue %) 10 μM: compound 10 μM
Method in brief: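 Cells at 5.0×10^5 cells/mL were pretreated with compound (final 0.1, 1 and 10 μM) for 30 minutes at room temperature, then given TNF-α at 15 ng/mL final. After 20 to 24 hours at 37° C, 5% CO2, viability was read as ATP luminescence to calculate cytotoxicity and necroptosis inhibition rate.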

MLKL [1] = target: T1, MLKL (Homo sapiens, UniProt Q8NB16); experiment: MLKL degradation assay in HepG2 cell line (western blot); assay type: cell-based; set-up: endogenous in cells; host or cells: HepG2 or HaCaT; settings: cell line not given; for Degradation assay (Degradation %) 1 μM: compound 1 μM; for Degradation assay (Degradation %) 10 μM: compound 10 μM
T1 sequence (Q8NB16 1-471): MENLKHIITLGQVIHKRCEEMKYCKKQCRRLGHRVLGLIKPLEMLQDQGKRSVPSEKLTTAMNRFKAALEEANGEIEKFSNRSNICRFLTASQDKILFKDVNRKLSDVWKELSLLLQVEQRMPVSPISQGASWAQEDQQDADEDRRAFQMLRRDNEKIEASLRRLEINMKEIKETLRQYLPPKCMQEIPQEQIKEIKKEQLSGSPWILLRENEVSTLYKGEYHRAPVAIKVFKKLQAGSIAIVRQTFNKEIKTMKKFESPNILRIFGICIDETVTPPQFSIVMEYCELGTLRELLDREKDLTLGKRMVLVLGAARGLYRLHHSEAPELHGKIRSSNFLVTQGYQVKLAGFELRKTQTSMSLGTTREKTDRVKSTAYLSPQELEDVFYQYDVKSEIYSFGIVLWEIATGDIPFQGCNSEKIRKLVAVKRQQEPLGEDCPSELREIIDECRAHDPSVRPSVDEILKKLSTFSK
Method in brief: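 HepG2 cells were exposed to compound at a final 1 or 10 μM for 20-24 hours at 37 °C, 5% CO2. RIPA lysates were normalized by BCA assay, 10-15 μg protein resolved by SDS-PAGE, and MLKL levels detected by western blot with chemiluminescence.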

MLKL [2] = target: T1, MLKL; experiment: Measurement of binding affinity with MLKL receptor (competitive binding assay, Kd); set-up: made in house; host or cells: HEK 293 cell line (T7 phage in E. coli BL21-derived host is also described)
Method in brief: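 Competitive displacement of MLKL, expressed in HEK 293 cells and DNA-tagged for qPCR, from immobilized ligand on biotin-blocked beads. Compounds were added from 111× DMSO stocks (final DMSO 0.9%). Kinase left in the eluates was quantified by qPCR to give Kd.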

Question: With `COc1ccc(C(=O)N2CCC(C(=O)N3CCC4(CC3)CC(N3CCC(CN5CCC(n6cc(-c7cnc(N)c(C(=O)O[C@@H](C(=O)Nc8ccc(F)cc8)c8ccccc8)n7)cn6)CC5)CC3)C4)CC2)cc1N1CCC(=O)NC1=O` [TDH-508, (R)-2-((4-fluorophenyl)amino)-2-oxo-1-phenylethyl 3-amino-6-(1-(1-((1-(7-(1-(3-(2,4-dioxotetrahydropyrimidin-1(2H)-yl)-4-methoxybenzoyl)piperidine-4-carbonyl)-7-azaspiro[3.5]nonan-2-yl)piperidin-4-yl)methyl)piperidin-4-yl)-1H-pyrazol-4-yl)pyrazine-2-carboxylate] as the molecule, how does the “Necroptosis inhibition assay (Rescue %) 1 μM” value (FADD−/− Jurkat cells; FADD−/− Jurkat cells) read?
Answer: Its value is 48.15%.

Question: And the “Necroptosis inhibition assay (Rescue %) 10 μM” value (FADD−/− Jurkat cells; FADD−/− Jurkat cells)?
Answer: The value was 39.79%.

Question: And the “Degradation assay (Degradation %) 1 μM” value (MLKL [1])?
Answer: The value was 87.16%.

Question: What about the “Degradation assay (Degradation %) 10 μM” value (MLKL [1]) of the same molecule?
Answer: The value was 90.95%.

Question: What about the Kd (MLKL [2]) of the same molecule?
Answer: The Kd was 0.4 nM.

Question: Which “Necroptosis inhibition assay (Rescue %) 1 μM” value (FADD−/− Jurkat cells) does the source give for `Nc1ncc(-c2cnn(C3CCN(C(=O)C4CCN(C(=O)CNc5cccc6c5C(=O)N(C5CCC(=O)NC5=O)C6=O)CC4)CC3)c2)nc1C(=O)OC(C(=O)Nc1ccc(F)cc1)c1ccccc1` (stereo not drawn) [TDH-275, 2-((4-fluorophenyl)amino)-2-oxo-1-phenylethyl 3-amino-6-(1-(1-(1-((2-(2,6-dioxopiperidin-3-yl)-1,3-dioxoisoindolin-4-yl)glycyl)piperidine-4-carbonyl)piperidin-4-yl)-1H-pyrazol-4-yl)pyrazine-2-carboxylate] here?
Answer: The value was 69.59%.

Question: What about the “Necroptosis inhibition assay (Rescue %) 10 μM” value (FADD−/− Jurkat cells) of the same molecule?
Answer: The value was 69.98%.

Question: And the “Degradation assay (Degradation %) 1 μM” value (MLKL [1])?
Answer: Its value is 57.84%.

Question: What about the “Degradation assay (Degradation %) 10 μM” value (MLKL [1]) of the same molecule?
Answer: The value was 63.11%.

Question: What about the Kd (MLKL [2]) of the same molecule?
Answer: Its Kd is 4.9 nM.

Question: How did the “Necroptosis inhibition assay (Rescue %) 1 μM” value (FADD−/− Jurkat cells) turn out when `Nc1ncc(-c2cnn(C3CCN(CCC4CCN(C(=O)CNc5ccc6nnn(C7CCC(=O)NC7=O)c(=O)c6c5)CC4)CC3)c2)nc1C(=O)OC(C(=O)Nc1ccc(F)cc1)c1ccccc1` (stereo not drawn) [TDH-292, 2-((4-fluorophenyl)amino)-2-oxo-1-phenylethyl 3-amino-6-(1-(1-(2-(1-((3-(2,6-dioxopiperidin-3-yl)-4-oxo-3,4-dihydrobenzo[d][1,2,3]triazin-6-yl)glycyl)piperidin-4-yl)ethyl)piperidin-4-yl)-1H-pyrazol-4-yl)pyrazine-2-carboxylate] was run?
Answer: Its value is 78.15%.

Question: What about the “Necroptosis inhibition assay (Rescue %) 10 μM” value (FADD−/− Jurkat cells) of the same molecule?
Answer: Its value is 73.02%.

Question: What about the “Degradation assay (Degradation %) 1 μM” value (MLKL [1]) of the same molecule?
Answer: Its value is 79.96%.

Question: And the “Degradation assay (Degradation %) 10 μM” value (MLKL [1])?
Answer: The value was 81.68%.

Question: And the Kd (MLKL [2])?
Answer: Its Kd is 2.3 nM.

Question: `Nc1ncc(-c2cnn(C3CCN(CCOC4CCN(C(=O)C5CCN(C6=CC(=O)N(C7CCC(=O)NC7=O)C6=O)CC5)CC4)CC3)c2)nc1C(=O)O[C@@H](C(=O)Nc1ccc(F)cc1)c1ccccc1` (stereo partly drawn) [TDH-529, (R)-2-((4-fluorophenyl)amino)-2-oxo-1-phenylethyl 3-amino-6-(1-(1-(2-((1-(1-(1-(2,6-dioxopiperidin-3-yl)-2,5-dioxo-2,5-dihydro-1H-pyrrol-3-yl)piperidine-4-carbonyl)piperidin-4-yl)oxy)ethyl)piperidin-4-yl)-1H-pyrazol-4-yl)pyrazine-2-carboxylate] was tested. Which “Necroptosis inhibition assay (Rescue %) 1 μM” value (FADD−/− Jurkat cells; FADD−/− Jurkat cells) did it give?
Answer: Its value is 36.72%.

Question: And the “Necroptosis inhibition assay (Rescue %) 10 μM” value (FADD−/− Jurkat cells; FADD−/− Jurkat cells)?
Answer: Its value is 15.86%.

Question: What about the “Degradation assay (Degradation %) 1 μM” value (MLKL [1]) of the same molecule?
Answer: Its value is 24.89%.

Question: What about the “Degradation assay (Degradation %) 10 μM” value (MLKL [1]) of the same molecule?
Answer: Its value is 66.48%.

Question: And the Kd (MLKL [2])?
Answer: The Kd was 0.25 nM.

Question: `Nc1ncc(-c2cnn(C3CCN(C[C@H]4CC[C@H](CNC(=O)CNc5cccc6c5C(=O)N(C5CCC(=O)NC5=O)C6=O)CC4)CC3)c2)nc1C(=O)O[C@@H](C(=O)Nc1ccc(F)cc1)c1ccccc1` (stereo partly drawn) [TDH-347, (R)-2-((4-fluorophenyl)amino)-2-oxo-1-phenylethyl 3-amino-6-(1-(1-(((1r,4r)-4-((2-((2-(2,6-dioxopiperidin-3-yl)-1,3-dioxoisoindolin-4-yl)amino)acetamido)methyl)cyclohexyl)methyl)piperidin-4-yl)-1H-pyrazol-4-yl)pyrazine-2-carboxylate] was tested. Which “Necroptosis inhibition assay (Rescue %) 1 μM” value (FADD−/− Jurkat cells) did it give?
Answer: Its value is 23.88%.

Question: What about the “Necroptosis inhibition assay (Rescue %) 10 μM” value (FADD−/− Jurkat cells) of the same molecule?
Answer: Its value is 12.87%.

Question: And the “Degradation assay (Degradation %) 1 μM” value (MLKL [1])?
Answer: Its value is 77.96%.

Question: And the “Degradation assay (Degradation %) 10 μM” value (MLKL [1])?
Answer: Its value is 85.06%.

Question: And the Kd (MLKL [2])?
Answer: The Kd was 1.9 nM.

Question: What does the source list for `Nc1ncc(-c2cnn(C3CCN(CCCCCCNC(=O)C4CN(c5cccc6c5C(=O)N(C5CCC(=O)NC5=O)C6=O)C4)CC3)c2)nc1C(=O)O[C@@H](C(=O)Nc1ccc(F)cc1)c1ccccc1` (stereo partly drawn) [TDH-113, (R)-2-((4-fluorophenyl)amino)-2-oxo-1-phenylethyl 3-amino-6-(1-(1-(6-(1-(2-(2,6-dioxopiperidin-3-yl)-1,3-dioxoisoindolin-4-yl)azetidine-3-carboxamido)hexyl)piperidin-4-yl)-1H-pyrazol-4-yl)pyrazine-2-carboxylate]?
Answer: Necroptosis inhibition assay (Rescue %) 1 μM (FADD−/− Jurkat cells): 24.96%; Necroptosis inhibition assay (Rescue %) 10 μM (FADD−/− Jurkat cells): 5.16%; Degradation assay (Degradation %) 1 μM (MLKL [1]): 24.54%; Degradation assay (Degradation %) 10 μM (MLKL [1]): 19.24%; Kd (MLKL [2]): 2.3 nM

Question: `Nc1ncc(-c2cnn(C3CCN(CC4CCN(C(=O)CCc5ccc6c(c5)C(=O)N(C5CCC(=O)NC5=O)C6=O)CC4)CC3)c2)nc1C(=O)O[C@@H](C(=O)Nc1ccc(F)cc1)c1ccccc1` (stereo partly drawn) [TDH-328, (R)-2-((4-fluorophenyl)amino)-2-oxo-1-phenylethyl 3-amino-6-(1-(1-((1-(3-(2-(2,6-dioxopiperidin-3-yl)-1,3-dioxoisoindolin-5-yl)propanoyl)piperidin-4-yl)methyl)piperidin-4-yl)-1H-pyrazol-4-yl)pyrazine-2-carboxylate] was tested. Which “Necroptosis inhibition assay (Rescue %) 1 μM” value (FADD−/− Jurkat cells) did it give?
Answer: The value was 52.22%.

Question: And the “Necroptosis inhibition assay (Rescue %) 10 μM” value (FADD−/− Jurkat cells)?
Answer: Its value is 31.65%.

Question: What about the “Degradation assay (Degradation %) 1 μM” value (MLKL [1]) of the same molecule?
Answer: Its value is 69.07%.

Question: And the “Degradation assay (Degradation %) 10 μM” value (MLKL [1])?
Answer: The value was 58.46%.

Question: What about the Kd (MLKL [2]) of the same molecule?
Answer: The Kd was 1.8 nM.

Question: Which “Necroptosis inhibition assay (Rescue %) 1 μM” value (FADD−/− Jurkat cells) does the source give for `Nc1ncc(-c2cnn([C@H]3CCN(CC4CCN(C(=O)COc5ccc6c(c5)C(=O)N(C5CCC(=O)NC5=O)C6=O)CC4)C3)c2)nc1C(=O)OC(C(=O)Nc1ccc(F)cc1)c1ccccc1` (stereo partly drawn) [TDH-284, 2-((4-fluorophenyl)amino)-2-oxo-1-phenylethyl 3-amino-6-(1-((3S)-1-((1-(2-((2-(2,6-dioxopiperidin-3-yl)-1,3-dioxoisoindolin-5-yl)oxy)acetyl)piperidin-4-yl)methyl)pyrrolidin-3-yl)-1H-pyrazol-4-yl)pyrazine-2-carboxylate] here?
Answer: The value was 75.95%.

Question: What about the “Necroptosis inhibition assay (Rescue %) 10 μM” value (FADD−/− Jurkat cells) of the same molecule?
Answer: The value was 52.77%.

Question: What about the “Degradation assay (Degradation %) 1 μM” value (MLKL [1]) of the same molecule?
Answer: Its value is 42.05%.

Question: And the “Degradation assay (Degradation %) 10 μM” value (MLKL [1])?
Answer: The value was 58.09%.

Question: What about the Kd (MLKL [2]) of the same molecule?
Answer: Its Kd is 2.6 nM.

Question: How did the “Necroptosis inhibition assay (Rescue %) 1 μM” value (FADD−/− Jurkat cells; FADD−/− Jurkat cells) turn out when `Nc1ncc(-c2cnn(C3CCN(C(=O)CCC4CCN(C(=O)C5CCN(c6cccc7nnn(C8CCC(=O)NC8=O)c(=O)c67)CC5)CC4)CC3)c2)nc1C(=O)O[C@@H](C(=O)Nc1ccc(F)cc1)c1ccccc1` (stereo partly drawn) [TDH-435, (R)-2-((4-fluorophenyl)amino)-2-oxo-1-phenylethyl 3-amino-6-(1-(1-(3-(1-(1-(3-(2,6-dioxopiperidin-3-yl)-4-oxo-3,4-dihydrobenzo[d][1,2,3]triazin-5-yl)piperidine-4-carbonyl)piperidin-4-yl)propanoyl)piperidin-4-yl)-1H-pyrazol-4-yl)pyrazine-2-carboxylate] was run?
Answer: The value was 18.26%.

Question: And the “Necroptosis inhibition assay (Rescue %) 10 μM” value (FADD−/− Jurkat cells; FADD−/− Jurkat cells)?
Answer: The value was 11.49%.

Question: What about the “Degradation assay (Degradation %) 1 μM” value (MLKL [1]) of the same molecule?
Answer: Its value is 79.73%.

Question: What about the “Degradation assay (Degradation %) 10 μM” value (MLKL [1]) of the same molecule?
Answer: Its value is 64.92%.

Question: What about the Kd (MLKL [2]) of the same molecule?
Answer: Its Kd is 1.8 nM.
